According to patent US8741559B2, “Cellular assay employing detectable protein” (DiscoveRx Corporation, priority 2009, dated 2014):

Tests used:
FRAP1 = test: Phospho-Akt1 (Ser473) cellular assay; assay type: cell-based, human; details: Hek 293 cells; for dose response in the phospho-Akt1 (Ser473) assay: FIG. 5; for IC50 through the FRAP1 pathway compared with the PDPK1 pathway: anti-phospho Akt1 (Ser473) versus anti-phospho Akt (Thr308) assays
Description: (§1) In this cellular assay, compounds were tested for their ability to inhibit Braf, by measuring the phosphorylation of Mek1, a direct kinase substrate of Braf. A375 cells expressing the constitutively active Braf V600E mutation were plated at a density of 3e5 cells/mL in a 10 cm plate and transfected with expression plasmid encoding detectable protein (16 μg) in 1 mL OPTI-MEM buffer (GIBCO/Invitrogen) with 40 μL Lipofectamine 2000 (Invitrogen) and incubated at 37° C. for 18-22 h. On the following day, media was removed and cells washed with PBS, trypsinized then quenched with M3 media (DMEM containing 10% FBS). Cells were counted and resuspended in M3 complete media to a density of […] and then plated at 50,000 cells/well/100 μL into a 96-well plate and incubated at 37° C. for 3h. Media was then removed and starvation media (0.5% FBS/DMEM) was added to the wells and allowed to incubate overnight. On the following day, the cells were incubated with compound in M3 starvation media and incubated at 37° C. for 2 hours.
The cells were centrifuged at 3000 rpm for 20 minutes. […] Lysate dilution was carried out in two steps. The 96-well plate containing 10 μL extract aliquot was thawed at room temp, and 40 microliters of a solution of 0.1% BSA /1× PBS 0.05% Tween with 2 nM nucleic acid tag serving as the NF-κB probe was added, and mixed by orbital shaking at 450 rpm at room temp for 10 min. Then 270 microliters of a solution of 20 microgram per mL sheared salmon sperm DNA in 0.1% BSA/1× PBS 0.05was added, and mixed gently by pipetting up and down.
On the following day, beads were pelleted then washed/blocked and resuspended in 1-2×2% BSA/PBST and plated out onto a 96-well polypropylene plate at half the original stock concentration. The phospho-MEK1 binding assay was carried out on a separate plate containing 25 μL of beads and 100 μL 2% BSA/PBST which was shaken until the addition of cell lysate. For the binding assay, beads were first pelleted and the buffer aspirated, and then 100 μL of diluted lysate was added to each well and the plate was shaken at room temperature for one hour. After the binding step, the beads were pelleted for 4 minutes, the buffer aspirated and 150 μL of PBST was added. The plate was briefly shaken and then pelleted over a magnet and then washed two to four times with wash buffer (1× PBS/0.05% Tween 20) to remove unbound proteins. After the final wash, the beads were resuspended in 150 μL of IgG elution buffer (Pierce Cat No. 21004) supplemented with Tween 20 to 0.05% and incubated at room temperature with shaking for 60 minutes. After pelleting the beads, 50 μL of the eluted mixture was removed, and added to 30 μL of 200 mM Tris base, mixed well, and then transferred to the DNA detection assay. For qPCR, 2.5 μL was transferred to 7.5 μL of mastermix with appropriate primers and probes (Applied Biosystems).
As shown in the diagram in FIG. 2, the PIK3CA kinase mediates signaling through two separate pathways, e.g., by direct activation of the kinase substrates FRAP1 (the kinase domain of mTOR), or other less-studied kinases known as “PDK2” in the literature and PDPK1, both of which in turn phosphorylate Akt. […] Therefore, using this cellular assay, compounds were interrogated for their inhibitory mechanism not only against PIK3CA but also against FRAP1 or PDPK1, by measuring site-specific phosphorylation of Akt. […] A binding assay using anti-total Akt1 antibody was also run in parallel to normalize the amount of measured phospho-Akt1 across wells.

PDPK1 = test: Phospho-Akt1 (Thr308) cellular assay; assay type: cell-based, human; details: Hek 293 cells, FIG. 6
Description: as §1, with “On the following day, the cells were incubated with compound in M3 starvation media and incubated at 37° C. for 2 hours.” left out
As shown in the diagram in FIG. 2, the PIK3CA kinase mediates signaling through two separate pathways, e.g., by direct activation of the kinase substrates FRAP1 (the kinase domain of mTOR), or other less-studied kinases known as “PDK2” in the literature and PDPK1, both of which in turn phosphorylate Akt. […] A binding assay using anti-total Akt1 antibody was also run in parallel to normalize the amount of measured phospho-Akt1 across wells.

| Compound | dose response in the phospho-Akt1 (Ser473) assay (FRAP1) | inhibition of Thr308 phosphorylation of Akt (PDPK1) | IC50 through the FRAP1 pathway compared with the PDPK1 pathway (FRAP1) |
| --- | --- | --- | --- |
| C[C@@H]1C[C@H]2O[C@@H]2/C=C\C=C\C(=O)Cc2c(Cl)c(O)cc(O)c2C(=O)O1 [radicicol] | partially sensitive | could only partially inhibit Thr308 phosphorylation |  |
| Nc1nc(N)c2nc(-c3cccc(O)c3)c(-c3cccc(O)c3)nc2n1 [TG-100-115] | insensitive |  |  |
| Oc1cccc(-c2nc(N3CCOCC3)c3oc4ncccc4c3n2)c1 [PI103] |  |  | nearly equipotent IC50 |
| O=C(NCCCNc1nc(Nc2cccc(NC(=O)N3CCCC3)c2)ncc1I)c1cccs1 [BX-795] | insensitive |  | selectively inhibiting PDPK1 over FRAP1 |
| FC(F)c1nc2ccccc2n1-c1nc(N2CCOCC2)nc(N2CCOCC2)n1 [ZSTK-474] |  |  | nearly equipotent IC50s |
